Test results published in ChEMBL document CHEMBL1938343, “Lead optimisation of selective non-zinc binding inhibitors of MMP13. Part 2” (Bioorg Med Chem Lett, 2012).
≈ marks a conversion by molar mass, not a printed value.

Key:
Rattus norvegicus = experiment: (§1) Oral bioavailability in rat; format: ADME, organism-based; settings: in vivo
Collagenase 3 = Collagenase 3 (Homo sapiens, UniProt P45452); experiment: Inhibition of recombinant human MMP13 using Mca-Pro-cyclohexyl-Ala-Gly-Nva-His-Ala- Dap(Dnp)-NH2 as substrate by fluorometric analysis; settings: read-out: pIC50 (converted)
[1] = target: 72 kDa type IV collagenase (Homo sapiens, UniProt P08253); experiment: Inhibition of MMP2 using Mca-Pro-cyclohexyl-Ala-Gly-Nva-His-Ala- Dap(Dnp)-NH2 as substrate by fluorometric analysis; settings: read-out: pIC50 (converted)
[2] = Intrinsic clearance in human microsomes; format: ADME, Microsome
[3] = target: Matrix metalloproteinase-9 (Homo sapiens, UniProt P14780); experiment: Inhibition of MMP9 using Mca-Pro-cyclohexyl-Ala-Gly-Nva-His-Ala- Dap(Dnp)-NH2 as substrate by fluorometric analysis
[4] = target: Macrophage metalloelastase (Homo sapiens, UniProt P39900); experiment: Inhibition of MMP12 using Mca-Pro-cyclohexyl-Ala-Gly-Nva-His-Ala- Dap(Dnp)-NH2 as substrate by fluorometric analysis
[5] = target: Matrix metalloproteinase-14 (Homo sapiens, UniProt P50281); experiment: Inhibition of MMP14 using Mca-Pro-cyclohexyl-Ala-Gly-Nva-His-Ala- Dap(Dnp)-NH2 as substrate by fluorometric analysis
[6] = Thermodynamic solubility of the compound; settings: Therm_solubility
[7] = Intrinsic clearance in Sprague-Dawley rat hepatocytes assessed per 10^6 cells; format: ADME, cell-based, Hepatocyte; settings: Sprague-Dawley, read-out: CLH
Cytochrome P450 1A2 = target: T1, Cytochrome P450 1A2 (Homo sapiens, UniProt P05177); experiment: Inhibition of CYP1A2; format: ADME
T1 sequence (P05177 whole entry): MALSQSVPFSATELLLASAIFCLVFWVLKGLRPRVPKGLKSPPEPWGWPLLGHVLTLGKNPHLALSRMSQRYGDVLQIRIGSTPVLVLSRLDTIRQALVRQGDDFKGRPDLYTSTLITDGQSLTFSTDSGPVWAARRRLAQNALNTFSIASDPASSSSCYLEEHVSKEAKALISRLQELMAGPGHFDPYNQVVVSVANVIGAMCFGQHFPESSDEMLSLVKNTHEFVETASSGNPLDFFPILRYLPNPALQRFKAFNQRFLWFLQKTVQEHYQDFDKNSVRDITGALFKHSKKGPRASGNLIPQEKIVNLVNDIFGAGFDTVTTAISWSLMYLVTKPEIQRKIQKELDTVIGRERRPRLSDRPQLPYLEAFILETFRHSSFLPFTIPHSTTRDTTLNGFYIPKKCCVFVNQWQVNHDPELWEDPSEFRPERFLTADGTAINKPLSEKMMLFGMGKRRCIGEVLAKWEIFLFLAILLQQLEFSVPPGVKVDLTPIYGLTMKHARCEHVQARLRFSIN

Cytochrome P450 2C9 = Cytochrome P450 2C9 (Homo sapiens, UniProt P11712); experiment: Inhibition of CYP2C9; format: ADME; settings: read-out: pIC50 (converted)
Cytochrome P450 2C19 = Cytochrome P450 2C19 (Homo sapiens, UniProt P33261); experiment: Inhibition of CYP2C19; format: ADME; settings: read-out: pIC50 (converted)
Cytochrome P450 2D6 = Cytochrome P450 2D6 (Homo sapiens, UniProt P10635); experiment: Inhibition of CYP2D6; format: ADME; settings: read-out: pIC50 (converted)
Cytochrome P450 3A4 = Cytochrome P450 3A4 (Homo sapiens, UniProt P08684); experiment: Inhibition of CYP3A4; format: ADME; settings: read-out: pIC50 (converted)
[8] = Clearance in rat at 2 mg/kg, iv; format: ADME, organism-based; design: dose 2 mg/kg, route intravenous; settings: in vivo
[9] = Volume of distribution at steady state in rat at 2 mg/kg, iv; format: ADME, organism-based; design: dose 2 mg/kg, route intravenous; settings: in vivo, read-out: Vdss
[10] = Half life in rat at 2 mg/kg, iv; format: ADME, organism-based; design: dose 2 mg/kg, route intravenous; settings: in vivo
[11] = Apparent permeability across apical to basolateral side in human Caco2 cells at 10 uM; format: ADME, cell-based; settings: Caco-2
[12] = Apparent permeability across basolateral to apical side in human Caco2 cells at 10 uM; format: ADME, cell-based; settings: Caco-2
[13] = as §1; format: ADME, organism-based; settings: in vivo
[14] = Lipophilicity, log D of the compound; settings: octanol/water
[15] = Fraction unbound in human; format: ADME, organism-based; settings: in vivo
[16] = Fraction unbound in rat; format: ADME, organism-based; settings: in vivo
[17] = Oral bioavailability in rat at 2 to 50 mg/kg; format: ADME, organism-based; settings: in vivo
[18] = target: T2, A disintegrin and metalloproteinase with thrombospondin motifs 1 (Homo sapiens) (UniProt Q9UHI8); experiment: Inhibition of ADAM-TS1 dimethoxyfluorescein-Ser-Pro-Leu-Ala-Gln-Ala- Val-Arg-ser-Ser-Arg-Cys-fluorescein
T2 sequence (whole entry): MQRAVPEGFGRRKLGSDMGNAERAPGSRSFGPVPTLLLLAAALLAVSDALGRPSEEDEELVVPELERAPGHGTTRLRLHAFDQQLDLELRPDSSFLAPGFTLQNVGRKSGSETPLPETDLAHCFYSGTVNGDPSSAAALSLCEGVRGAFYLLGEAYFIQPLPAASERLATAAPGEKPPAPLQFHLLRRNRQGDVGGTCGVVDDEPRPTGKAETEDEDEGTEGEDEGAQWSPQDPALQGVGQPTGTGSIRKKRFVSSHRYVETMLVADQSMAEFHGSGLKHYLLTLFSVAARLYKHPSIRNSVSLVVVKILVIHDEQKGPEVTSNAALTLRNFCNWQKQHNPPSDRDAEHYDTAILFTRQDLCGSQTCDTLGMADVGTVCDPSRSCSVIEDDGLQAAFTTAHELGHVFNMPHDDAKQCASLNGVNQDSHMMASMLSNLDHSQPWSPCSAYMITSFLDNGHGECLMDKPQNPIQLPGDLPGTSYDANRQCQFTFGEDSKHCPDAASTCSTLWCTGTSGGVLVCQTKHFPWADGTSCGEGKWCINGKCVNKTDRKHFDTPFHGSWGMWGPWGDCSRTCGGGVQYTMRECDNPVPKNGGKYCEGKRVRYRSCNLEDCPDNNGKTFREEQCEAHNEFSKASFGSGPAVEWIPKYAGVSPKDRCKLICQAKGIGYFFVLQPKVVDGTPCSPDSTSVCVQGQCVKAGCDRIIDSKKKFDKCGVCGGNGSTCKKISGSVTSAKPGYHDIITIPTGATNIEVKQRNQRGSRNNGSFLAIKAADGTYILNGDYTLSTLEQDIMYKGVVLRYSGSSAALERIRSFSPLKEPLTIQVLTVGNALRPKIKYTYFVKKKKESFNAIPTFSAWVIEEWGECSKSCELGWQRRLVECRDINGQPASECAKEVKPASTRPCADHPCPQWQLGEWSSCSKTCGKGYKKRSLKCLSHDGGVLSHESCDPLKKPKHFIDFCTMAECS

[19] = target: T3, A disintegrin and metalloproteinase with thrombospondin motifs 4 (Homo sapiens) (UniProt O75173); experiment: Inhibition of ADAM-TS4 using dimethoxyfluorescein-Ser-Pro-Leu-Ala-Gln-Ala- Val-Arg-ser-Ser-Arg-Cys-fluorescein as substrate
T3 sequence (whole entry): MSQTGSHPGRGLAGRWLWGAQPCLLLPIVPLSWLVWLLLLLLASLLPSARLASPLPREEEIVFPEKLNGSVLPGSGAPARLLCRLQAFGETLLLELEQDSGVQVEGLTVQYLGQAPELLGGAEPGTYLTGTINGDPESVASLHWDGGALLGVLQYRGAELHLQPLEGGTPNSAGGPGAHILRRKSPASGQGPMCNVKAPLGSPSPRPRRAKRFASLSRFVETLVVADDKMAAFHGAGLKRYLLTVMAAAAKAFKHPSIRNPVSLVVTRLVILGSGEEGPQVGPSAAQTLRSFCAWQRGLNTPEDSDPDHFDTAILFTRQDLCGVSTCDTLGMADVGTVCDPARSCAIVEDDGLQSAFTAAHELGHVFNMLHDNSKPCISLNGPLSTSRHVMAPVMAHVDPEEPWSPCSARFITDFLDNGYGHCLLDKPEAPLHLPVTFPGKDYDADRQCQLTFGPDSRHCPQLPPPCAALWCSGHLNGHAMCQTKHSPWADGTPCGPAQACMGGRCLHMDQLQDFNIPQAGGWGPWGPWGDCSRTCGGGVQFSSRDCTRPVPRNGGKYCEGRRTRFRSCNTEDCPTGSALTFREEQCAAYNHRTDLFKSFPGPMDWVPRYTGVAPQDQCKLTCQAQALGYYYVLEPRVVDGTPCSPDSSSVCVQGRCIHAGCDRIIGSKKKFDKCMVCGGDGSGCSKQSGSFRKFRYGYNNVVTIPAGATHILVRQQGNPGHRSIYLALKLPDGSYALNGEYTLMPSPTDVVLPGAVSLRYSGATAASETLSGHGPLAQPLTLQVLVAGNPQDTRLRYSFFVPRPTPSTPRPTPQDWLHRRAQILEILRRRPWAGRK

[20] = target: T4, A disintegrin and metalloproteinase with thrombospondin motifs 5 (Homo sapiens) (UniProt Q9UNA0); experiment: Inhibition of ADAM-TS5 using dimethoxyfluorescein-Ser-Pro-Leu-Ala-Gln-Ala- Val-Arg-ser-Ser-Arg-Cys-fluorescein as substrate
T4 sequence (whole entry): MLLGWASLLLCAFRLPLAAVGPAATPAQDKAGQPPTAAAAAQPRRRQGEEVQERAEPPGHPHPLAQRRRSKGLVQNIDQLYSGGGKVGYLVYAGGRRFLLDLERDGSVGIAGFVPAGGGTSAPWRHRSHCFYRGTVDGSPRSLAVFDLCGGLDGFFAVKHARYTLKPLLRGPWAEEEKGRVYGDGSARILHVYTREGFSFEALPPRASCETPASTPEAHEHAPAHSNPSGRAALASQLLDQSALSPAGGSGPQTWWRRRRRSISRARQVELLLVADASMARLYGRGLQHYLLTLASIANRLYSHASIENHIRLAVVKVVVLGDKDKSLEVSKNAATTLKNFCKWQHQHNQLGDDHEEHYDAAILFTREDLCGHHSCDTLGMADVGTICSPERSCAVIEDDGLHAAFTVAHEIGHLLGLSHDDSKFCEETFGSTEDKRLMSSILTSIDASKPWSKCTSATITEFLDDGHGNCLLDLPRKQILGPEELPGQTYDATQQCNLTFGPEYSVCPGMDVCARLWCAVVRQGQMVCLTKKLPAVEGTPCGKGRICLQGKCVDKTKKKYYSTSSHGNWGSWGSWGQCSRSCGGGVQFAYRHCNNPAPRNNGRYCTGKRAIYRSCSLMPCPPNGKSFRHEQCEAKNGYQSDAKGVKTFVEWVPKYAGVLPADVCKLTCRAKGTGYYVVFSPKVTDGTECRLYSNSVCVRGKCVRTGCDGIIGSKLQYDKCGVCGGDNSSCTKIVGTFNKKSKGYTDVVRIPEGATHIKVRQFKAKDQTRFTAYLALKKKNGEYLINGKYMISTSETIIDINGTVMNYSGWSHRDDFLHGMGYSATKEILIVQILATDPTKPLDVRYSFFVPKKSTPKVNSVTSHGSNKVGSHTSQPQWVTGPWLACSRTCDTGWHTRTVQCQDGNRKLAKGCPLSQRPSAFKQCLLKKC

Chain of Macrophage metalloelastase (P39900 whole entry): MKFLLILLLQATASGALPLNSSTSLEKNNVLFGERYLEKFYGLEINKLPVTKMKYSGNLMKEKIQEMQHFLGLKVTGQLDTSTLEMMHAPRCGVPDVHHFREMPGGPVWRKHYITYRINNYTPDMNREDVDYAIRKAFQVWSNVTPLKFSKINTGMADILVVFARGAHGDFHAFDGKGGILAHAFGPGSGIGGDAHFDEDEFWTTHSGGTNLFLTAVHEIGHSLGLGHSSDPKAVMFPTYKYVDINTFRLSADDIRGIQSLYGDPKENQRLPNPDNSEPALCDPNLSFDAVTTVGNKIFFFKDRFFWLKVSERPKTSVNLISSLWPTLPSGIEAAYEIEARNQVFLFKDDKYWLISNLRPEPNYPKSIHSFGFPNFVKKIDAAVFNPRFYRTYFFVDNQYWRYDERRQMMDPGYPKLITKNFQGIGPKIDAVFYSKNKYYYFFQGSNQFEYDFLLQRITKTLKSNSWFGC
Chain of Matrix metalloproteinase-9 (P14780 whole entry): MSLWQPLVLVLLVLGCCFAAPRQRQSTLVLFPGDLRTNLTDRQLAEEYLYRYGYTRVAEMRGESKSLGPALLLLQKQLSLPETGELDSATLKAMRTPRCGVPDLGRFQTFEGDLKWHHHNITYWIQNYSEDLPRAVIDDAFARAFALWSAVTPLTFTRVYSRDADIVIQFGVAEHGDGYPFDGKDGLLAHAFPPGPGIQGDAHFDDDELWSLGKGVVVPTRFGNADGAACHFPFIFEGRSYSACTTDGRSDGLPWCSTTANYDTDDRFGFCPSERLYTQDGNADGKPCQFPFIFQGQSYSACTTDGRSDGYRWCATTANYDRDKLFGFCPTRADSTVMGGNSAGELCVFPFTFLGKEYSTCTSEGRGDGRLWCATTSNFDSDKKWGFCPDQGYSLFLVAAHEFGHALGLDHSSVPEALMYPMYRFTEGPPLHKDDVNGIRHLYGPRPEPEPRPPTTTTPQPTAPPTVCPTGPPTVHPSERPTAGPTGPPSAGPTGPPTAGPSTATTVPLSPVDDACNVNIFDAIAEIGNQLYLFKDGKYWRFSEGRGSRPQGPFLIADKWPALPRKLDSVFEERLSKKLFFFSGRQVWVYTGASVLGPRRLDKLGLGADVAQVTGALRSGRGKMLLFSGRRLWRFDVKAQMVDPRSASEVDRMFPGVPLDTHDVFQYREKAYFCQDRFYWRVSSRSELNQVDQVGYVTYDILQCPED
Chain of 72 kDa type IV collagenase (P08253 whole entry): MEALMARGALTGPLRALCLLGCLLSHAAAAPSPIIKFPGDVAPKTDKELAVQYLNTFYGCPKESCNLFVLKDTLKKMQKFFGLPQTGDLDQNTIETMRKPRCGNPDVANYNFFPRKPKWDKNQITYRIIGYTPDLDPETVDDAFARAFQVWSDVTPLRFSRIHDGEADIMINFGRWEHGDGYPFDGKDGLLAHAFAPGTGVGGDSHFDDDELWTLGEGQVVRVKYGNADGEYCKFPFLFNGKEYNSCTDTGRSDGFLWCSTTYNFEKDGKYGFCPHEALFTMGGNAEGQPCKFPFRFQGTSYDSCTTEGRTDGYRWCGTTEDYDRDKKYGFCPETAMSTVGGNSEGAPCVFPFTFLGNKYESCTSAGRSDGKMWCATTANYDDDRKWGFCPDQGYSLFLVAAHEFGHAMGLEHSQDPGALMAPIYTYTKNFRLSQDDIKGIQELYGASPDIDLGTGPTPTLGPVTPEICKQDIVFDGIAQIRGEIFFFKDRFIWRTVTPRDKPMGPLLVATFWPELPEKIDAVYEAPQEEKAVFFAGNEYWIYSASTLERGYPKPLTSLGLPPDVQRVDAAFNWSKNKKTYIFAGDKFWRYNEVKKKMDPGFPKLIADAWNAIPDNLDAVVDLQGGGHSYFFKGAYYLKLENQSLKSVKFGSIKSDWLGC
Chain of Cytochrome P450 2C9 (P11712 whole entry): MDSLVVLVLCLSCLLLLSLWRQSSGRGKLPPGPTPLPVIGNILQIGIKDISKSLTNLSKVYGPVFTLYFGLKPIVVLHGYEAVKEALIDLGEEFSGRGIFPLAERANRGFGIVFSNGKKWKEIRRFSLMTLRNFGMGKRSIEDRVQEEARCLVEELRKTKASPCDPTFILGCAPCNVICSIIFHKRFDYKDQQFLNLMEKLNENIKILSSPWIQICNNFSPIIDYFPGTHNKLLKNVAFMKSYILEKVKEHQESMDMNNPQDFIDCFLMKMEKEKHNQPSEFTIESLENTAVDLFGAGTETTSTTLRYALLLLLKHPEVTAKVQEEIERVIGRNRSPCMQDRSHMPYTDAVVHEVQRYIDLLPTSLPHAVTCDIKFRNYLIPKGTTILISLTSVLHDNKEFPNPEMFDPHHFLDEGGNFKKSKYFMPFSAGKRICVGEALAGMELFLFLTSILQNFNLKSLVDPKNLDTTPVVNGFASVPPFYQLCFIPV
Chain of Cytochrome P450 3A4 (P08684 whole entry): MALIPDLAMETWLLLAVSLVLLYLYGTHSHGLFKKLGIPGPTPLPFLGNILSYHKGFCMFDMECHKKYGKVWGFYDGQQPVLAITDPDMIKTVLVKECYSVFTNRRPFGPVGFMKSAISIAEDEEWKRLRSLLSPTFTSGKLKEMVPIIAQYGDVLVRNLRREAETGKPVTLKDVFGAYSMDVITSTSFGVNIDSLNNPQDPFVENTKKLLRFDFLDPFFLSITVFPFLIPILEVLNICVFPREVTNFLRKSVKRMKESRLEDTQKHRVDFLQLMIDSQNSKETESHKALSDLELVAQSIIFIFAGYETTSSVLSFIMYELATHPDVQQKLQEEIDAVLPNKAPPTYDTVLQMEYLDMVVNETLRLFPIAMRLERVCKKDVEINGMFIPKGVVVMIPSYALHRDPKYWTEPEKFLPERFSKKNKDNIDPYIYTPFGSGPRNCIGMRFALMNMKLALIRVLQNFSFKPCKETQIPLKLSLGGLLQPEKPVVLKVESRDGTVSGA
Chain of Cytochrome P450 2D6 (P10635 whole entry): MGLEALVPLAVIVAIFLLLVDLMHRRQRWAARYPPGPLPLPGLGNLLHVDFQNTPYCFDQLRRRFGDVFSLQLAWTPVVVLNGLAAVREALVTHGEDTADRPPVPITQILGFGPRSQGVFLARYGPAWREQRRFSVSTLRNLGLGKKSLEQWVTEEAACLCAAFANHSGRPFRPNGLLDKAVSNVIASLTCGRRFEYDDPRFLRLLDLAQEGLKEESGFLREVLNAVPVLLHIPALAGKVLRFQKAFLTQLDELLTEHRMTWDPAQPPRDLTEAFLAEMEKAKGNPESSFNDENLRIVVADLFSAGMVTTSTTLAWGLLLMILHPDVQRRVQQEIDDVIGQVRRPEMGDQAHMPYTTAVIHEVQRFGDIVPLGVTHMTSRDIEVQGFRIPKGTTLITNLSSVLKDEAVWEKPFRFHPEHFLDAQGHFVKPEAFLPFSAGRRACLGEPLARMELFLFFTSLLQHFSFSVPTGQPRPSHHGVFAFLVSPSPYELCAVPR
Chain of Cytochrome P450 2C19 (P33261 whole entry): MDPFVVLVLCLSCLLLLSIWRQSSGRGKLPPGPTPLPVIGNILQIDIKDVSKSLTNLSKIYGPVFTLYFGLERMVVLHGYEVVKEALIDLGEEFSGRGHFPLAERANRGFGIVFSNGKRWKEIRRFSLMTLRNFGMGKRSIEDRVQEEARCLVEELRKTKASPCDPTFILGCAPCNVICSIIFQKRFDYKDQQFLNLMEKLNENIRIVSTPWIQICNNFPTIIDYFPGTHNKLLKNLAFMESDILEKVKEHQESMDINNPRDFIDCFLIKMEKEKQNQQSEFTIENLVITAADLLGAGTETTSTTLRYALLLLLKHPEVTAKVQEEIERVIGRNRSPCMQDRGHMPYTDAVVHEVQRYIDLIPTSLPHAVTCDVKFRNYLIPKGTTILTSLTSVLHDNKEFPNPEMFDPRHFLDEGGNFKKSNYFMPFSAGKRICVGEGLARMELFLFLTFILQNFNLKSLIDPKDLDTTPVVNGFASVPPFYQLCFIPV

O=C(NC1CCCS(=O)(=O)C1)c1ccc(Oc2ccc(C#C[C@]3(O)CN4CCC3CC4)cc2)cc1 (single isomer, unassigned; diastereomer 2)
F (Rattus norvegicus): 0%
IC50 (Collagenase 3): 0.01 µM
IC50 [1]: 2.51 µM
microsomal CLint [2]: < 2 µL/min/mg
pIC50 [3]: < 5
pIC50 [4]: < 5
pIC50 [5]: < 5
solubility thermodynamic [6]: 120 µM (≈ 59.4 µg/mL)
hepatocyte CLint [7]: 3.4 µL/min/1e6 cells

CNC(=O)c1ccc(Oc2ccc(C#C[C@]3(O)CN4CCC3CC4)cc2)cc1
IC50 (Cytochrome P450 1A2): > 10 µM
IC50 (Cytochrome P450 2C9): > 10 µM
IC50 (Cytochrome P450 2C19): > 10 µM
IC50 (Cytochrome P450 2D6): > 10 µM
IC50 (Cytochrome P450 3A4): > 10 µM
clearance [8]: 16 mL/min/kg
Vd [9]: 2.4 L/kg
half-life [10]: 1.9 h
Papp A→B at 10 µM [11]: 23 ×10⁻⁶ cm/s
Papp B→A at 10 µM [12]: 34 ×10⁻⁶ cm/s
bioavailability [13]: 54%
IC50 (Collagenase 3): 0.2 µM
IC50 [1]: 20 µM
microsomal CLint [2]: 3.9 µL/min/mg
IC50 ([3]; read-out: pIC50 (converted)): > 100 µM
IC50 ([4]; read-out: pIC50 (converted)): > 100 µM
IC50 ([5]; read-out: pIC50 (converted)): > 100 µM
logD [14]: 2
solubility thermodynamic [6]: > 1600 µM
fraction unbound [15]: 0.24
fraction unbound [16]: 0.26
hepatocyte CLint [7]: 2.7 µL/min/1e6 cells

O=C(NCc1ccncn1)c1ccc(Oc2ccc(C#C[C@]3(O)CN4CCC3CC4)cc2)cc1
bioavailability [17]: 2%
Papp A→B at 10 µM [11]: 6.7 ×10⁻⁶ cm/s
Papp B→A at 10 µM [12]: 33 ×10⁻⁶ cm/s
logD [14]: 1.8
hepatocyte CLint [7]: 3.2 µL/min/1e6 cells

O=C(NC1CCCS(=O)(=O)C1)c1ccc(Oc2ccc(C#C[C@]3(O)CN4CCC3CC4)cc2)cc1 (single isomer, unassigned; diastereomer 1)
INH [18]: > 100 µM
INH [19]: > 10 µM
INH [20]: > 10 µM
